Source: patent publication US7132286B2, “Method for neural stem cell differentiation using valproate” (Psychiatric Genomics, Inc., priority 2001, dated 2006)
“Also recorded” adds a separate entry of the source.

What was measured:
rat cortical stem cells [1] = experiment: Neuronal differentiation of rat cortical stem cells (β-tubulin III immunofluorescence, cell counting); format: cell-based
Excerpt: Isolation of cortical and striatal stem cells. Timed pregnant Sprague Dawley rats were obtained from Taconic at embryonic age E14–E15 were sacrificed by inhalation of excess carbon dioxide. The abdomen of the rat was cleaned with 70% ethanol and the uterus was removed quickly and aseptically on the bench top. The uterus was placed in ice cold HBSS (GIBCO Cat. #20012-027) in a 10 cm petridish. After rinsing the uterus in PBS, embryos were removed from the uterus, rinsed in HBSS and collected in cold HBSS (buffered with HEPES and sodium bicarbonate) in a 10 cm petridish and placed on ice.
Plating, expansion and passaging of cortical and striatal stem cells. A generous amount of the triturated cell suspension was left in the original 15 ml tube to avoid fibroblast contamination in cultures. About 4–5 ml of the 6 ml of cells suspension was used for plating. Cells were plated at a concentration of 1.3×10^3 cells to 3.0×10^3 per cm^2 in 100 mm dish. This culture is designated P0 (passage 0).
Following plating cells were expanded for about 3–4 days (Passage 1, P1). Cells were treated daily with 10 ng/ml bFGF. The cultures were never permitted to reach more than 70% confluency. Cultures were then passaged as follows: 10 ml of HBSS without Ca^2+ and Mg^2+ was added to each 100 mm dish and the cells incubated at 37° C. for 5–15 minutes, or until sufficient numbers of the stem cells were rounded up. It is not expected that all cells in the culture will round up as there are several cell types in the culture at P0. The pH of the HBSS should be neutral at all times during this incubation. Cells were then removed from the dish by pipetting with a 5 ml pipette, and collected in a 15 or 50 ml conical tube, and centrifuged at 1000 g for 5 minutes. Cells were gently re-suspended in medium, counted, and plated at a density of 1×10^6 cells in 10 cm dishes and expanded for about 2 days in bFGF (Passage 1, P1). At that time the cells were passaged as described and plated onto pre-coated poly-L-ornithine/fibronectin vessels at concentrations indicated below for each experiment. Cells were treated with bFGF for 2 additional days. Before each treatment the bFGF was removed from the cells by washing twice with DMEM/F 12 to induce cell differentiation. For neurite outgrowth experiments, cells were seeded at 5×10^3 cells/well in 24-well plates and treated immediately.
(§1) Drug treatment. For immunofluorescence and Western analysis, cells were treated daily with either 0.5 mM of valproate (Sigma), 10 ng/ml of BDNF (R & D Systems), 20 ng/ml of NT-3 (R & D Systems), 1 nM 9cis retinoic acid (Sigma) or a dilution of NCM for 6 or 7 days. In some experiments valproate was also added with NCM and/or 9cis RA for 7 days. For human stem cell experiments, valproate (0.5 mM) or BDNF (25 ng/ml) was added for 9 days. For neurite outgrowth experiments, cells were treated for 1 day with 0.5 mM valproate or 50 ng/ml of BDNF. Where applicable, medium was changed every 2 days. After about 5–10 days, preferably on day 6 (i.e., after 6 days of drug exposure) the cells were fixed with a 4% solution of para-formaldehyde (PFA) in PBS, prepared as follows:
Immunofluorescent staining and visualization. Cells were plated at 20,000 cells/well in poly-L-ornithine/fibronectin (1 mg/ml) coated 24-well plates. After fixation, the PBS was aspirated from the fixed cells and the cells were treated with blocking solution (10% normal goat serum-NGS-Jackson Labs), 0.3% Triton-Sigma, in PBS) to saturate non-specific sites and permeabilize the cells. […]

rat cortical stem cells [2] = experiment: Differentiation of rat cortical stem cells into GABA expressing cells (GABA immunocytochemistry); format: cell-based; conditions: 6 days valproate vs control
Procedure: as §1, with “follows: Immunofluorescent staining and visualization. Cells were plated at 20,000 cells/well in poly-L-ornithine/fibronectin (1 mg/ml) coated 24-well plates. […] For immunofluorescence, 3 different black and white pictures were taken by field of interest with a digital camera CoolSnap Fx (Princeton) corresponding to the exposure of Cy2, Cy3 and Hoechst fluorescence. […] The percentage of neurons, astrocytes and GABAergic cells was determined by comparing the number of cells immunopositive for β-tubulin III, GFAP and GABA to the number of bis-benzamide stained nuclei (i.e., total cell number). […]” for “follows:”

[3] = tested on: teratocarcinoma cell line NTera-2; conditions: NTera-2 cells (Skladchikova et al.); cited from earlier work
[4] = literature; cited from earlier work
[5] = rat cortical stem cells, 6 days, vs control

Compound: CCCC(CCC)C(=O)O [valproate, 2-Propylpentanoic acid]
- increase of percentage of β-tubulin III expressing neurons over the control (rat cortical stem cells [1]; rat cortical neural stem cells, 6 days): ~5 fold
- morphology of neurons (rat cortical stem cells [1]; rat cortical stem cells, 6 days valproate): growing in clusters and had longer process than cells in control
- effect on neuronal differentiation (percentage of β-tubulin-III expressing cells) in words (rat cortical stem cells [1]; [5]): increases neuronal differentiation more efficiently than neurotrophins or growth factors
- effect on number of neurons per field (rat cortical stem cells [1]; [5]): increases the number of neurons
- effect on total cell number (proliferation), bis-benzimide nuclei (rat cortical stem cells [1]; [5]): without valproate affecting the total cell number; also recorded: total number of cells is comparable to control; also recorded: does not inhibit neural stem cell proliferation
- percentage of β-tubulin III expressing neurons (mean+SD) (rat cortical stem cells [1]; rat cortical stem cells, daily treatment 6 days, 0.5 mM valproate, 10 ng/ml BDNF, 20 ng/ml NT-3, untreated control 6.2+1.8%): 25.8+0.8%
- neuronal differentiation compared to control, in words (rat cortical stem cells [1]; rat cortical stem cells, daily treatment 7 days, 0.5 mM valproate, 0.5× NCM, 1 nM 9-cis RA): increased the neuronal differentiation
- maximum percentage of neurons (rat cortical stem cells [1]; valproate added with 9-cis RA and NCM, 7 days, rat cortical stem cells): 60%
- number and percentage of cells immuno-positive for GABA (rat cortical stem cells [2]): dramatic increase in the number; also recorded: increase in the number of GABA-positive neurons
- proliferation and retinoic acid-induced neuronal differentiation [3]: inhibit the proliferation and block retinoic acid-induced neuronal differentiation
- teratogenic activity [4]: established human teratogen
